# Experimental data published in patent publication US5212163A, “Compounds” (Beecham Group p.l.c., priority 1989, dated 1993).
# Biological target: rabbit bone collagenase (Oryctolagus cuniculus, UniProt P13943)
# Assay: biochemical
# Method: The test is performed essentially as in Cawston and Barrett Anal. Biochem. 99, 340-345 (1979). Compounds for testing are dissolved in methanol and added to purified rabbit bone collagenase or human collagenase purified from culture supernatants from the human lung fibroblast cell line, WI-38, diluted in a suitable aqueous buffer. After a 5 min pre-incubation at 37° C., the assay tubes are cooled to 4° C. and ^14 C-acetylated rat skin Type I collagen is added. The assay tubes are incubated at 37° C. overnight. The ^14 C-collagen forms insoluble fibrils which are the substrate for the enzyme.
# To terminate the assay, the assay tubes are spun at 12000 rpm for 25 min. Undigested ^14 C-collagen remains as insoluble fibrils and is pelleted, while digested ^14 C-collagen remains as soluble peptides in the supernatant. A sample of the supernatant is taken for liquid scintillation counting.
# Chain of rabbit bone collagenase (P13943 99-468): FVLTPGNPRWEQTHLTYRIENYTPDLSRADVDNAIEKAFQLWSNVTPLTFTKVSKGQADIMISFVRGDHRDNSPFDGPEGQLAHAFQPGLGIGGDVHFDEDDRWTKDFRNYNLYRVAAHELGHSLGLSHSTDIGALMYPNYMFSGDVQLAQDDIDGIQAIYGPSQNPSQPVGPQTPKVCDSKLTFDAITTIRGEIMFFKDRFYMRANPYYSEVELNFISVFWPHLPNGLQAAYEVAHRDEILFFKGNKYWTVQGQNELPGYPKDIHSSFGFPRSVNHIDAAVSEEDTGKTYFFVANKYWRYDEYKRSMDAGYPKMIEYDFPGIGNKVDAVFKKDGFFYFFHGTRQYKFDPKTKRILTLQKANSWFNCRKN
row,Structure (SMILES),IC50
1,"COC(=O)[C@H](C)NC(=O)[C@H](Cc1ccc(OC)cc1)NC(=O)[C@H](CC(C)C)NC(C)P(=O)(O)O (stereo partly drawn) [Example E2, N-[N-[N-(1-Phosphonoethyl)-leucyl]-O-methyl-(S)-tyrosyl]-(S)-alanine, methyl ester]",3.1 µM
2,"COC(=O)[C@H](C)NC(=O)[C@H](Cc1c[nH]c2ccccc12)NC(=O)[C@H](CC(C)C)NC(C)P(=O)(O)O (stereo partly drawn) [Example E1, N-[N-[N-(1-Phosphonoethyl)-leucyl]-(S)-tryptophyl]-(S)-alanine, methyl ester]",2.4 µM
